According to patent US20260022142A1, “MACROCYCLIC IMMUNOMODULATORS” (Bristol-Myers Squibb Company, priority 2022, published 2026):
Bridge positions count the residues as written; N and C are the ends. Square brackets hold non-standard residues; d marks the D form. Peptide text beside a SMILES is read from it. * marks the point of attachment. ξ: configuration not given here. Bip = N[C@@H](Cc1ccc(-c2ccccc2)cc1)C(=O)O; hArg = N=C(N)NCCCC[C@H](N)C(=O)O; Cha = N[C@@H](CC1CCCCC1)C(=O)O; Cit = NC(=O)NCCC[C@H](N)C(=O)O; Thr(3ξ) = CC(O)[C@H](N)C(=O)O; hSer = N[C@@H](CCO)C(=O)O; Carboxymethyl = O=C(O)C*; Orn = NCCC[C@H](N)C(=O)O; Aun = NCCCCCCCCCCC(=O)O; Dab = NCC[C@H](N)C(=O)O

Biological target: T1, PD-1/PD-L1 interaction (PE-labeled human PD-L1-Ig binding to Jurkat cell line over-expressing human PD-1) (Homo sapiens, UniProt Q15116)
T1 construct: expressed in transfected cells; host or cells: Jurkat
T1 sequence (Q15116 25-288): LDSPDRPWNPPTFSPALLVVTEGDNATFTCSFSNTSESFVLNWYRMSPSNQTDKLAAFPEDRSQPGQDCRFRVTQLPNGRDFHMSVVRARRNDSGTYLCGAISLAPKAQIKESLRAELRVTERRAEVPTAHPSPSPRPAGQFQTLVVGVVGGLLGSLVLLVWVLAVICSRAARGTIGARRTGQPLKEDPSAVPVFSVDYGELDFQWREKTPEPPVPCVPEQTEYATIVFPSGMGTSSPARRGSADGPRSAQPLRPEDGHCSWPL
Experiment: Jurkat-PD-1 Cell Binding High-Content Screening Assay (CBA)
Type: cell-based
Conditions: Jurkat cell line over-expressing human PD-1; PE-labeled PD-L1-Ig 20 nM final; read-out: Jurkat hPD1-PDL1 IC50
Procedure, shortened: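 Jurkat cells over-expressing human PD-1 (8×10^3 per well, DMEM/10% FCS) preincubated with compound 2 h at 37° C, then PE-labeled human PD-L1-Ig (20 nM final) added for 1 h. Cells fixed with paraformaldehyde, Hoechst-stained, and bound fluorescence quantified by high-content imaging.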

Compound	IC50 [µM]
CC(C)C[C@H]1NC(=O)[C@H](CCCN)NC(=O)[C@H](Cc2ccc(O)cc2)NC(=O)[C@H](Cc2ccc(-c3ccccc3)cc2)NC(=O)[C@H](C(C)C)NC(=O)[C@H](Cc2c[nH]c3ccccc23)NC(=O)[C@H](CC(=O)O)NC(=O)[C@H](Cc2ccc(OCC(=O)O)cc2)NC(=O)[C@H](CCCCNC(=N)N)NC(=O)CSC[C@@H](C(=O)N[C@@H](CCN)C(=O)NCCCCCCCCCCC(=O)O)NC(=O)[C@H](CCO)NC(=O)[C@H](C(C)C)NC(=O)[C@H](CC2CCCCC2)NC(=O)[C@H](CCN)NC1=O [Compound 3408] ({CH2CO}-[hArg]Y(Carboxymethyl)DWV[Bip]Y[Orn][dL][Dab][Cha]V[hSer]C[Dab][Aun]-OH; thioether N-14)	0.0209
CC(=O)NCCCC[C@@H]1NC(=O)[C@H](C(C)C)NC(=O)[C@H](CC2CCCCC2)NC(=O)[C@H](CCN)NC(=O)[C@@H](CC(C)C)NC(=O)[C@H](CCCN)NC(=O)[C@H](Cc2ccc(O)cc2)NC(=O)[C@H](Cc2ccc(-c3ccccc3)cc2)NC(=O)[C@H](C(C)C)NC(=O)[C@H](Cc2c[nH]c3ccccc23)NC(=O)[C@H](CC(=O)O)NC(=O)[C@H](Cc2ccc(OCC(=O)O)cc2)NC(=O)[C@H](CCCCNC(=N)N)NC(=O)CSC[C@@H](C(=O)N[C@@H](CCN)C(=O)NCCCCCCCCCCC(=O)O)NC1=O [Compound 3409] ({CH2CO}-[hArg]Y(Carboxymethyl)DWV[Bip]Y[Orn][dL][Dab][Cha]VK(Ac)C[Dab][Aun]-OH; thioether N-14)	0.0156
CC(C)C[C@H]1NC(=O)[C@H](CCCN)NC(=O)[C@H](Cc2ccc(O)cc2)NC(=O)[C@H](Cc2ccc(-c3ccccc3)cc2)NC(=O)[C@H](C(C)C)NC(=O)[C@H](Cc2c[nH]c3ccccc23)NC(=O)[C@H](CC(=O)O)NC(=O)[C@H](Cc2ccc(OCC(=O)O)cc2)NC(=O)[C@H](CCCCNC(=N)N)NC(=O)CSC[C@@H](C(=O)N[C@@H](CCN)C(=O)NCCCCCCCCCCC(=O)O)NC(=O)[C@H](C(C)O)NC(=O)[C@H](C(C)C)NC(=O)[C@H](CC2CCCCC2)NC(=O)[C@H](CCN)NC1=O (stereo partly drawn) [Compound 3410] ({CH2CO}-[hArg]Y(Carboxymethyl)DWV[Bip]Y[Orn][dL][Dab][Cha]V[Thr(3ξ)]C[Dab][Aun]-OH; thioether N-14)	0.0202
CC(C)C[C@H]1NC(=O)[C@H](CCCN)NC(=O)[C@H](Cc2ccc(O)cc2)NC(=O)[C@H](Cc2ccc(-c3ccccc3)cc2)NC(=O)[C@H](C(C)C)NC(=O)[C@H](Cc2c[nH]c3ccccc23)NC(=O)[C@H](CC(=O)O)NC(=O)[C@H](Cc2ccc(OCC(=O)O)cc2)NC(=O)[C@H](CCCNC(=N)N)NC(=O)CSC[C@@H](C(=O)N[C@@H](CCN)C(=O)NCCCCCCCCCCC(=O)O)NC(=O)[C@H](CCCNC(N)=O)NC(=O)[C@H](C(C)C)NC(=O)[C@H](CC2CCCCC2)NC(=O)[C@H](CCN)NC1=O [Compound 3411] ({CH2CO}-RY(Carboxymethyl)DWV[Bip]Y[Orn][dL][Dab][Cha]V[Cit]C[Dab][Aun]-OH; thioether N-14)	0.011
CC(C)C[C@H]1NC(=O)[C@H](CCCN)NC(=O)[C@H](Cc2ccc(O)cc2)NC(=O)[C@H](Cc2ccc(-c3ccccc3)cc2)NC(=O)[C@H](C(C)C)NC(=O)[C@H](Cc2c[nH]c3ccccc23)NC(=O)[C@H](CC(=O)O)NC(=O)[C@H](Cc2ccc(OCC(=O)O)cc2)NC(=O)[C@H](CCCNC(=N)N)NC(=O)CSC[C@@H](C(=O)N[C@@H](CCN)C(=O)NCCCCCCCCCCC(=O)O)NC(=O)[C@H](CCO)NC(=O)[C@H](C(C)C)NC(=O)[C@H](CC2CCCCC2)NC(=O)[C@H](CCN)NC1=O [Compound 3412] ({CH2CO}-RY(Carboxymethyl)DWV[Bip]Y[Orn][dL][Dab][Cha]V[hSer]C[Dab][Aun]-OH; thioether N-14)	0.0164
